The values that follow come from ChEMBL document CHEMBL4177763, “Development of Macrocyclic Peptidomimetics Containing Constrained α,α-Dialkylated Amino Acids with Potent and Selective Activity at Human Melanocortin Receptors” (J Med Chem, 2018).

Experiment [1] concerns the target T1, Melanocyte-stimulating hormone receptor (Homo sapiens, UniProt Q01726). As to the kind of experiment: Displacement of [125I]-NDP-alpha-MSH from human MC1R expressed in HEK293 cells after 40 mins by gamma counting method. The format is cell-based. A general note: In a radioligand displacement assay an active substance lowers the binding of a labelled ligand.
Target sequence in this assay (Q01726 whole entry): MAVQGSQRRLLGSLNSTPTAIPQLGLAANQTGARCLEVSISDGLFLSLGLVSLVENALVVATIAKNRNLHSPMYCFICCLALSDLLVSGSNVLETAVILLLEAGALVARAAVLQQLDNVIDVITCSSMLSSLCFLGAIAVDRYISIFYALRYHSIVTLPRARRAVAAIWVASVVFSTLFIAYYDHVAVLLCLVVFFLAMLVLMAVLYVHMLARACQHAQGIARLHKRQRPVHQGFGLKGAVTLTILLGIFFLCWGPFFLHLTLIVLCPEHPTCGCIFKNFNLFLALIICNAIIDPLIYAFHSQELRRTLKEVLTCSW

For experiment [2], the target named is T1, Melanocyte-stimulating hormone receptor. As to the kind of experiment: Agonist activity at human MC1R expressed in HEK293 cells assessed as induction of intracellular cAMP accumulation measured after 3 mins. The format is functional, cell-based.
Target sequence in this assay (Q01726 whole entry): as above
Experiment [3] concerns the target T2, Melanocortin receptor 3 (Homo sapiens, UniProt P41968). The experiment in a line: Agonist activity at human MC3R expressed in HEK293 cells assessed as induction of intracellular cAMP accumulation at 10 uM after 3 mins relative to MT-2. The format is functional, cell-based.
Experiment [4] has as its target T3, Melanocortin receptor 4 (Homo sapiens, UniProt P32245). As to the kind of experiment: Displacement of [125I]-NDP-alpha-MSH from human MC4R expressed in HEK293 cells after 40 mins by gamma counting method. The format is cell-based.
In experiment [5] the target is T3, Melanocortin receptor 4. As to the kind of experiment: Agonist activity at human MC4R expressed in HEK293 cells assessed as induction of intracellular cAMP accumulation after 3 mins. The format is functional, cell-based.
The target of experiment [6] is T3, Melanocortin receptor 4. As to the kind of experiment: Agonist activity at human MC4R expressed in HEK293 cells assessed as induction of intracellular cAMP accumulation at 10 uM after 3 mins relative to MT-2. The format is functional, cell-based. On the technique in general: cAMP levels reflect the balance of adenylyl cyclase and phosphodiesterase activity.
In experiment [7] the target is T4, Melanocortin receptor 5 (Homo sapiens, UniProt P33032). The experiment in a line: Displacement of [125I]-NDP-alpha-MSH from human MC5R expressed in HEK293 cells after 40 mins by gamma counting method. The format is cell-based.
The target in experiment [8] is T4, Melanocortin receptor 5. As to the kind of experiment: Agonist activity at human MC5R expressed in HEK293 cells assessed as induction of intracellular cAMP accumulation after 3 mins. The format is functional, cell-based.
Experiment [9] concerns the target T4, Melanocortin receptor 5. As to the kind of experiment: Agonist activity at human MC5R expressed in HEK293 cells assessed as induction of intracellular cAMP accumulation at 10 uM after 3 mins relative to MT-2. The format is functional, cell-based.
Experiment [10] addresses T1, Melanocyte-stimulating hormone receptor. As to the kind of experiment: Agonist activity at human MC1R expressed in HEK293 cells assessed as induction of intracellular cAMP accumulation at 10 uM measured after 3 mins relative to MT-2. The format is functional, cell-based.
Target sequence in this assay (Q01726 whole entry, looked up): as the sequence (Q01726 whole entry) above
For experiment [11], the target named is T4, Melanocortin receptor 5. The experiment in a line: Displacement of [125I]-NDP-alpha-MSH from human MC5R expressed in HEK293 cells at 10 uM after 40 mins by gamma counting method. The format is cell-based.
Experiment [12] addresses T2, Melanocortin receptor 3. As to the kind of experiment: Displacement of [125I]-NDP-alpha-MSH from human MC3R expressed in HEK293 cells after 40 mins by gamma counting method. The format is cell-based.
For experiment [13], the target named is T2, Melanocortin receptor 3. As to the kind of experiment: Agonist activity at human MC3R expressed in HEK293 cells assessed as induction of intracellular cAMP accumulation after 3 mins. The format is functional, cell-based.

Activity calls are given as the source filed them. The calls are words filed in the database; no cut-off is given here. Bridge positions count the residues as written; N and C are the ends. Square brackets hold non-standard residues; d marks the D form. Peptide text beside a SMILES is read from it. d2Nal = N[C@H](Cc1ccc2ccccc2c1)C(=O)O; Ac6c = NC1(C(=O)O)CCCCC1; Ac5c = NC1(C(=O)O)CCCC1; Aib = CC(C)(N)C(=O)O Bounds are passed on as bounds.

T4 sequence (P33032 whole entry): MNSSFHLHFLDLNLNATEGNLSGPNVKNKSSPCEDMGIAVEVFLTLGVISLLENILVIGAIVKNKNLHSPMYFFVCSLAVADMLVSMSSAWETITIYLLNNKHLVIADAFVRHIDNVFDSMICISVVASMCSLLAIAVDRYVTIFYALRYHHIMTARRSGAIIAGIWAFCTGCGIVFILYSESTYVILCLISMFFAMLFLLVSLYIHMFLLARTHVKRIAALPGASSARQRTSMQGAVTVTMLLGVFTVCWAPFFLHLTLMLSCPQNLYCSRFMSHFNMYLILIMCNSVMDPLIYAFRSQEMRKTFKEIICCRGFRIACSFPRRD
T2 sequence (P41968 whole entry): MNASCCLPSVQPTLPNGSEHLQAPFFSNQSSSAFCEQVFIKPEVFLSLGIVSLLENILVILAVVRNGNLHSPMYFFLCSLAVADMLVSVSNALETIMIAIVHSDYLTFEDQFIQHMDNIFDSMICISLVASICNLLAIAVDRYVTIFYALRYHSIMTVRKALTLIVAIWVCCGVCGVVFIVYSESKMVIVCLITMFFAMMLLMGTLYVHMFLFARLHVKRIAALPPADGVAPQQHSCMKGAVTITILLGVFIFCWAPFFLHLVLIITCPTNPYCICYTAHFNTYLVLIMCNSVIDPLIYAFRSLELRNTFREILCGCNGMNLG
T3 sequence (P32245 whole entry): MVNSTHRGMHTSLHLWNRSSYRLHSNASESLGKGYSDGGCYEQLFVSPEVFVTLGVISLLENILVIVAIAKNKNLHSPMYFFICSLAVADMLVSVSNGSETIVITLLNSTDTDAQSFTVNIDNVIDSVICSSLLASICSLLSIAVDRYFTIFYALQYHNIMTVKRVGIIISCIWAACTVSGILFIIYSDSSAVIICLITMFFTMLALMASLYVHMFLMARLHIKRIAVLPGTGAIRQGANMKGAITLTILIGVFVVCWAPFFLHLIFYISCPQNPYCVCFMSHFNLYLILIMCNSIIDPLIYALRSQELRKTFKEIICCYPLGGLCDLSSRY

For `N=C(N)NCCC[C@@H]1NC(=O)[C@@H](Cc2ccc3ccccc3c2)NC(=O)[C@H](Cc2c[nH]cn2)NC(=O)C2(CCCC2)NC(=O)CC[C@@H](C(N)=O)NC(=O)[C@H](Cc2c[nH]c3ccccc23)NC1=O` ([Ac5c]H[d2Nal]RWE-NH2; lactam N-6), the IC50 is 0.043 µM in experiment [1], 0.1 µM at Melanocortin receptor 4 [4] and over 1 µM at Melanocortin receptor 5 [7]. In addition, the EC50 in experiment [2] was 0.108 µM; at Melanocortin receptor 4 [5] (read-out: EC50) it was 0.13 µM; at Melanocortin receptor 5 [8] (hek293), “Not Active”. Besides, the max activation at Melanocortin receptor 3 [3] came out at 82%; at Melanocortin receptor 4 [6], 74%; at Melanocortin receptor 5 [9], 0%; in experiment [10], 100%.
For `N=C(N)NCCC[C@@H]1NC(=O)[C@@H](Cc2ccccc2)NC(=O)[C@H](Cc2c[nH]cn2)NC(=O)C2(CCCC2)NC(=O)C[C@@H](C(N)=O)NC(=O)[C@H](Cc2c[nH]c3ccccc23)NC1=O` ([Ac5c]H[dF]RWD-NH2; lactam N-6), the result on Melanocortin receptor 5 [11] was inactive. For the same molecule, the EC50 result at Melanocortin receptor 5 [8] (hek293) is recorded as “Not Active”.
Regarding `N=C(N)NCCC[C@@H]1NC(=O)[C@@H](Cc2ccccc2)NC(=O)[C@H](Cc2c[nH]cn2)NC(=O)C2(CCCC2)NC(=O)CC[C@@H](C(N)=O)NC(=O)[C@H](Cc2c[nH]c3ccccc23)NC1=O` ([Ac5c]H[dF]RWE-NH2; lactam N-6), the IC50 in experiment [1] was 0.093 µM; on Melanocortin receptor 3 [12], 0.059 µM; on Melanocortin receptor 4 [4], over 1 µM. In addition, the max activation at Melanocortin receptor 3 [3] came to 100%; on Melanocortin receptor 4 [6], 100%; at Melanocortin receptor 5 [9] it was 0%; in experiment [10], 100%. In addition, the EC50 on Melanocortin receptor 4 [5] (read-out: EC50) was 1 µM; on Melanocortin receptor 5 [8] (hek293), “Not Active”. In addition, on Melanocortin receptor 5 [11], the outcome was inactive.
`N=C(N)NCCC[C@@H]1NC(=O)[C@@H](Cc2ccc3ccccc3c2)NC(=O)[C@H](Cc2c[nH]cn2)NC(=O)C2(CCCCC2)NC(=O)CC[C@@H](C(N)=O)NC(=O)[C@H](Cc2c[nH]c3ccccc23)NC1=O` ([Ac6c]H[d2Nal]RWE-NH2; lactam N-6): the EC50 entry on Melanocortin receptor 3 [13] (hek293), on Melanocortin receptor 4 [5] (hek293) and at Melanocortin receptor 5 [8] (hek293) was “Not Active” throughout.
For the molecule `N=C(N)NCCC[C@@H]1NC(=O)[C@@H](Cc2ccccc2)NC(=O)[C@H](Cc2c[nH]cn2)NC(=O)C2(CCCCC2)NC(=O)C[C@@H](C(N)=O)NC(=O)[C@H](Cc2c[nH]c3ccccc23)NC1=O` ([Ac6c]H[dF]RWD-NH2; lactam N-6), on Melanocortin receptor 5 [8] (hek293), the EC50 result is on record as “Not Active”.
Turning to `CC1(C)NC(=O)C[C@@H](C(N)=O)NC(=O)[C@H](Cc2c[nH]c3ccccc23)NC(=O)[C@H](CCCNC(=N)N)NC(=O)[C@@H](Cc2ccc3ccccc3c2)NC(=O)[C@H](Cc2c[nH]cn2)NC1=O` ([Aib]H[d2Nal]RWD-NH2; lactam N-6), the IC50 in [1] was 0.18 µM; at Melanocortin receptor 4 [4] it was 0.044 µM; on Melanocortin receptor 5 [7], 0.165 µM. The EC50 in experiment [2] was 0.067 µM; at Melanocortin receptor 3 [13] (read-out: EC50), 0.073 µM; at Melanocortin receptor 4 [5] (read-out: EC50), 0.0067 µM; on Melanocortin receptor 5 [8] (read-out: EC50), 0.018 µM. In addition, the max activation on Melanocortin receptor 3 [3] turned out to be 83%; on Melanocortin receptor 4 [6], 100%; at Melanocortin receptor 5 [9], 24%; in experiment [10], 100%.
Take `CC1(C)NC(=O)CC[C@@H](C(N)=O)NC(=O)[C@H](Cc2c[nH]c3ccccc23)NC(=O)[C@H](CCCNC(=N)N)NC(=O)[C@@H](Cc2ccc3ccccc3c2)NC(=O)[C@H](Cc2c[nH]cn2)NC1=O` ([Aib]H[d2Nal]RWE-NH2; lactam N-6): the EC50 result on Melanocortin receptor 5 [8] (hek293) is “Not Active”.
With `CC1(C)NC(=O)C[C@@H](C(N)=O)NC(=O)[C@H](Cc2c[nH]c3ccccc23)NC(=O)[C@H](CCCNC(=N)N)NC(=O)[C@@H](Cc2ccccc2)NC(=O)[C@H](Cc2c[nH]cn2)NC1=O` ([Aib]H[dF]RWD-NH2; lactam N-6), the IC50 in [1] was 0.601 µM; at Melanocortin receptor 4 [4], 0.0052 µM; on Melanocortin receptor 5 [7], over 1 µM. The EC50 in [2] turned out to be 0.087 µM; at Melanocortin receptor 3 [13] (read-out: EC50), 0.076 µM; on Melanocortin receptor 4 [5] (read-out: EC50), 0.0067 µM; on Melanocortin receptor 5 [8] (read-out: EC50), 0.14 µM. The max activation (on Melanocortin receptor 3 [3]; at Melanocortin receptor 4 [6]; at Melanocortin receptor 5 [9]; in [10]) was 100% throughout.

By IC50 is commonly meant the concentration at which inhibition is half-maximal. Low readings indicate greater potency in that assay, high ones weaker potency in that assay. As usually defined, the EC50 is the concentration at which the effect is half-maximal.
